Reference: ChEMBL document CHEMBL5137125, “Echiumin E, an Aryl Dihydronaphthalene Lignan from the Australian Invasive Plant Paterson's Curse (Echium plantagineum)” (J Nat Prod, 2022)

Experiments:
SH-SY5Y [1] = assay: Cytotoxicity against human SH-SY5Y cells assessed as inhibition of cell growth and measured after 72 hrs resazurin reduction assay; assay type: functional, cell-based
PC-3 = assay: Cytotoxicity against human PC-3 cells assessed as inhibition of cell growth and measured after 72 hrs resazurin reduction assay; assay type: functional, cell-based; conditions: PC-3, 72 h
[2] = Cytotoxicity against human WPMY-1 cells assessed as inhibition of cell growth and measured after 72 hrs resazurin reduction assay; assay type: toxicity, cell-based; conditions: for IC50 at 72 h: WPMY-1 cells
SH-SY5Y [3] = assay: Cytotoxicity against human SH-SY5Y cells assessed as inhibition of cell growth and measured upto 72 hrs by clonogenic assay; assay type: functional, cell-based
HeLa = assay: Cytotoxicity against human HeLa cells assessed as inhibition of cell growth and measured after 72 hrs resazurin reduction assay; assay type: functional, cell-based

COc1cc([C@H]2c3cc(O)c(OC)cc3C=C3C(=O)OC[C@H]4O[C@@](CO)(O[C@H]5O[C@H](COC(=O)/C=C/c6ccc(O[C@@H]7O[C@@H](C)[C@H](O)[C@@H](O)[C@H]7O)cc6)[C@@H](O)[C@H](O)[C@H]5O)[C@@H](OC(=O)[C@@H]32)[C@@H]4O)ccc1O
IC50 (SH-SY5Y [1]): > 10000 nM
IC50 (PC-3): > 10000 nM
Activity ([2]; wpmy-1, 72 h, time 72 hrs): Non-Toxic

O=C(O[C@H](Cc1ccc(O)c(O)c1)C(=O)O)c1cc(-c2ccc(O)c(O)c2)c2cc(O)c(O)cc2c1
IC50 (SH-SY5Y [1]): > 10000 nM
IC50 (PC-3): > 10000 nM
IC50 at 72 h [2]: > 10000 nM

O=C(OC(Cc1ccc(O)c(O)c1)C(=O)O)C1=Cc2cc(O)c(O)cc2[C@H](c2ccc(O)c(O)c2)[C@H]1C(=O)O[C@@H](Cc1ccc(O)c(O)c1)C(=O)O (some centres undefined)
IC50 (SH-SY5Y [1]): > 10000 nM
IC50 (PC-3): > 10000 nM
IC50 at 72 h [2]: > 10000 nM

CC(=O)O[C@@]12CO[C@@H]1C[C@H](O)[C@@]1(C)C(=O)[C@H](O)C3=C(C)[C@@H](OC(=O)[C@H](O)[C@@H](NC(=O)OC(C)(C)C)c4ccccc4)C[C@@](O)([C@@H](OC(=O)c4ccccc4)[C@H]21)C3(C)C [DOCETAXEL ANHYDROUS]
IC50 (PC-3): 0.6 nM
IC50 (SH-SY5Y [3]): 1.8 nM
IC50 at 72 h [2]: 210 nM

COc1cccc2c1C(=O)c1c(O)c3c(c(O)c1C2=O)C[C@@](O)(C(=O)CO)C[C@@H]3O[C@H]1C[C@H](N)[C@H](O)[C@H](C)O1 [DOXORUBICIN]
IC50 (HeLa): 1960 nM
IC50 (SH-SY5Y [1]): 40 nM
IC50 (PC-3): 10 nM
IC50 at 72 h [2]: 20 nM

O=C(/C=C/c1ccc(O)c(O)c1)O[C@H](Cc1ccc(O)c(O)c1)C(=O)O [ROSMARINIC ACID]
IC50 (SH-SY5Y [1]): > 10000 nM
IC50 (PC-3): > 10000 nM
IC50 at 72 h [2]: > 10000 nM
